{"source": "ChEMBL document CHEMBL4390652", "about": "“Design, biological evaluation and X-ray crystallography of nanomolar multifunctional ligands targeting simultaneously acetylcholinesterase and glycogen synthase kinase-3” (Eur J Med Chem, 2019)", "key": {"[1]": {"target": "TRAF2 and NCK-interacting protein kinase (Homo sapiens) (UniProt Q9UKE5)", "assay": "Binding affinity to wild-type human partial length TNIK (D4 to K311 residues) expressed in bacterial expression system assessed as residual binding level at 10 uM by Kinomescan method relative to control"}, "[2]": {"target": "Serine/threonine-protein kinase mTOR (Homo sapiens) (UniProt P42345)", "assay": "Binding affinity to wild-type human partial length MTOR (L1382 to W2549 residues) expressed in mammalian expression system assessed as residual binding level at 10 uM by Kinomescan method relative to control"}, "[3]": {"target": "Aurora kinase A (Homo sapiens) (UniProt O14965)", "assay": "Binding affinity to wild-type human partial length AURKA (E122 to K401 residues) expressed in mammalian expression system assessed as residual binding level at 10 uM by Kinomescan method relative to control"}, "[4]": {"target": "Casein kinase I isoform alpha-like (Homo sapiens) (UniProt Q8N752)", "assay": "Binding affinity to wild-type human full length CSNK1A1L (M1 to N337 residues) expressed in bacterial expression system assessed as residual binding level at 10 uM by Kinomescan method relative to control"}, "[5]": {"target": "Mitogen-activated protein kinase 11 (Homo sapiens) (UniProt Q15759)", "assay": "Binding affinity to wild-type human full length p38-beta (M1 to Q364 residues) expressed in bacterial expression system assessed as residual binding level at 10 uM by Kinomescan method relative to control"}, "[6]": {"test_system": "Fibroblast growth factor receptor 3 (Homo sapiens), P22607 [G697C]", "assay": "Binding affinity to human partial length FGFR3 G697C mutant (R442 to S771 residues) expressed in bacterial expression system assessed as residual binding level at 10 uM by Kinomescan method relative to control"}, "[7]": {"target": "Serine/threonine-protein kinase N2 (Homo sapiens) (UniProt Q16513)", "assay": "Binding affinity to wild-type human partial length PKN2 (E634 to C984 residues) expressed in bacterial expression system assessed as residual binding level at 10 uM by Kinomescan method relative to control"}, "[8]": {"target": "Serine/threonine-protein kinase VRK2 (Homo sapiens) (UniProt Q86Y07)", "assay": "Binding affinity to wild-type human partial length VRK2 (M1 to T336 residues) expressed in mammalian expression system assessed as residual binding level at 10 uM by Kinomescan method relative to control"}, "[9]": {"target": "Mitogen-activated protein kinase 13 (Homo sapiens) (UniProt O15264)", "sequence (O15264 whole entry, the tested form may be a part)": "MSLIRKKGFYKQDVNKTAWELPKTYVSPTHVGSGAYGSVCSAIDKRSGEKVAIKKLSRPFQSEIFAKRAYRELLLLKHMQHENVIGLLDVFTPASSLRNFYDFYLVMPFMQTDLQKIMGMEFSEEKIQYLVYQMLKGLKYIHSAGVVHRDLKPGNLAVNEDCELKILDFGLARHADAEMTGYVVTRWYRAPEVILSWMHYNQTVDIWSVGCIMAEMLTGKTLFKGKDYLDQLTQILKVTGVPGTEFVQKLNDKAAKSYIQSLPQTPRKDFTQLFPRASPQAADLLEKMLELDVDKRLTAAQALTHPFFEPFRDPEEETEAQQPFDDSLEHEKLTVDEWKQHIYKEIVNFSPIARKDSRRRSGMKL", "assay": "Binding affinity to wild-type human full length p38-delta (M1 to L365 residues) expressed in bacterial expression system assessed as residual binding level at 10 uM by Kinomescan method relative to control"}, "[10]": {"target": "Tyrosine-protein kinase ABL1 (Homo sapiens) (UniProt P00519)", "sequence (P00519 whole entry, the tested form may be a part)": "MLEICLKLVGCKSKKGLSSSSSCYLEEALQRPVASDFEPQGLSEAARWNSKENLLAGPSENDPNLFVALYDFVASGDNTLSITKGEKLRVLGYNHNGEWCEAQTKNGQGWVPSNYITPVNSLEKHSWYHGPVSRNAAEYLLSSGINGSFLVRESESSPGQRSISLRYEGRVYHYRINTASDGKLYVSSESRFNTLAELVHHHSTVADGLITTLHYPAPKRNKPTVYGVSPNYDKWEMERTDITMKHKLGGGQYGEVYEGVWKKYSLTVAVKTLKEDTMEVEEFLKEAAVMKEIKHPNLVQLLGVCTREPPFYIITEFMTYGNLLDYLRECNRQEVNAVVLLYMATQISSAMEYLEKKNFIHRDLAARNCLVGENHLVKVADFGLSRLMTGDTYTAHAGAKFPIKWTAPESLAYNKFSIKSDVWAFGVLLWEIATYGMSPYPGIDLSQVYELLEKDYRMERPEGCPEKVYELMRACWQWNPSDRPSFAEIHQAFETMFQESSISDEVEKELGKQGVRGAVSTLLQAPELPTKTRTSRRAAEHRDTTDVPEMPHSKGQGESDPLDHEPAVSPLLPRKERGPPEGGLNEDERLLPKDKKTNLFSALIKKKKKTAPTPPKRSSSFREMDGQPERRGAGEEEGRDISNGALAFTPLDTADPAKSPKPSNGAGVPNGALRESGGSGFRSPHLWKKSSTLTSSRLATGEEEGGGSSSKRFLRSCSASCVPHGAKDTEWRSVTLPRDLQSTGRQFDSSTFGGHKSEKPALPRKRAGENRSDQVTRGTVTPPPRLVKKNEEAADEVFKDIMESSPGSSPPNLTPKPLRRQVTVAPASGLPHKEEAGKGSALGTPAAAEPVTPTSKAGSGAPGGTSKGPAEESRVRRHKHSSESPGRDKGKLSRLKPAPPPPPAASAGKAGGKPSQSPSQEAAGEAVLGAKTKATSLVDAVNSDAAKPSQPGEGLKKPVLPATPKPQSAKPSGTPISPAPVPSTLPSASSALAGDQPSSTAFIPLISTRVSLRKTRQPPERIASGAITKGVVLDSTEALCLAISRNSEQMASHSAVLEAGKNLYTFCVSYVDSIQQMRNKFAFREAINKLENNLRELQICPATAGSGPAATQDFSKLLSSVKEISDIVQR", "assay": "Binding affinity to wild-type human non-phosphorylated ABL1 (S229 to K512 residues) expressed in mammalian expression system assessed as residual binding level at 10 uM by Kinomescan method relative to control"}, "[11]": {"target": "Insulin-like growth factor 1 receptor (Homo sapiens) (UniProt P08069)", "assay": "Binding affinity to wild-type human partial length IGF1R (L972 to D1294 residues) expressed in bacterial expression system assessed as residual binding level at 10 uM by Kinomescan method relative to control"}, "[12]": {"target": "Tyrosine-protein kinase JAK2 (Homo sapiens) (UniProt O60674)", "sequence (O60674 whole entry, the tested form may be a part)": "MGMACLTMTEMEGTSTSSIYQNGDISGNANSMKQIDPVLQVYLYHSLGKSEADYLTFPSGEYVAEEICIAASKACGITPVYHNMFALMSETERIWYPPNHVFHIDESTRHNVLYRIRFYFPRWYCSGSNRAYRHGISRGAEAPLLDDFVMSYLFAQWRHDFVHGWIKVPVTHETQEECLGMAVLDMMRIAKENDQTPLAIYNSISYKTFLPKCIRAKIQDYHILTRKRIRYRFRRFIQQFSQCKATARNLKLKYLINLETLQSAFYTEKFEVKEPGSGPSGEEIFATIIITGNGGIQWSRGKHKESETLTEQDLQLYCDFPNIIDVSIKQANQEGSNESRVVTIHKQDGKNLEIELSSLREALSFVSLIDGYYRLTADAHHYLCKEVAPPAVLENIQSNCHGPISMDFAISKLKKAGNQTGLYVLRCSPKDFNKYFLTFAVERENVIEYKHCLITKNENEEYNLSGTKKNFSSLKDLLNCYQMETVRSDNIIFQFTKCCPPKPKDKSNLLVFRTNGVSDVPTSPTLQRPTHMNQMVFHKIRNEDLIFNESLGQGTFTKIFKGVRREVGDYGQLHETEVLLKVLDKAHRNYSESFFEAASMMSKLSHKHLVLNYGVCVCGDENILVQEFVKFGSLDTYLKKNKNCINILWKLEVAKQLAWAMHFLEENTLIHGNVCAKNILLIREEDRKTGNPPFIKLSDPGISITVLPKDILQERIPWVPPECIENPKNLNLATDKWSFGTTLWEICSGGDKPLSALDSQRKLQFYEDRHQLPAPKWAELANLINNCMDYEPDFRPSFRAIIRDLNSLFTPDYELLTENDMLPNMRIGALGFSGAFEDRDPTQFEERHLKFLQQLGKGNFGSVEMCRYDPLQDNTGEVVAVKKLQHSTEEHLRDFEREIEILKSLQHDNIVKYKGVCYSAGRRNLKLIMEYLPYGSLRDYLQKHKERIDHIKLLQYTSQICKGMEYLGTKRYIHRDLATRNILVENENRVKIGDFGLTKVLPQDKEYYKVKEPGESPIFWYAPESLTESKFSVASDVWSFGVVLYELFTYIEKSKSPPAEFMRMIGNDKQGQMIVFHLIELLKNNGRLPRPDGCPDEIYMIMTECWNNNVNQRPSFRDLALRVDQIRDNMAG", "assay": "Binding affinity to wild-type human partial length JAK2 JH1 catalytic domain (A829 to G1132 residues) expressed in mammalian expression system assessed as residual binding level at 10 uM by Kinomescan method relative to control"}, "[13]": {"target": "Casein kinase I isoform delta (Homo sapiens) (UniProt P48730)", "assay": "Binding affinity to wild-type human full length CSNK1D (M1 to K409 residues) expressed in bacterial expression system assessed as residual binding level at 10 uM by Kinomescan method relative to control"}, "[14]": {"target": "Serine/threonine-protein kinase Sgk2 (Homo sapiens) (UniProt Q9HBY8)", "assay": "Binding affinity to wild-type human partial length SGK2 (L54 to C427 residues) expressed in mammalian expression system assessed as residual binding level at 10 uM by Kinomescan method relative to control"}, "[15]": {"target": "Mitogen-activated protein kinase 6 (Homo sapiens) (UniProt Q16659)", "assay": "Binding affinity to wild-type human partial length ERK3 (M1 to P413 residues) expressed in bacterial expression system assessed as residual binding level at 10 uM by Kinomescan method relative to control"}, "[16]": {"target": "Homeodomain-interacting protein kinase 3 (Homo sapiens) (UniProt Q9H422)", "assay": "Binding affinity to wild-type human partial length HIPK3 (M153 to N562 residues) expressed in mammalian expression system assessed as residual binding level at 10 uM by Kinomescan method relative to control"}, "[17]": {"target": "Fibroblast growth factor receptor 3 (Homo sapiens) (UniProt P22607)", "assay": "Binding affinity to wild-type human partial length FGFR3 (R442 to S771 residues) expressed in bacterial expression system assessed as residual binding level at 10 uM by Kinomescan method relative to control"}, "[18]": {"target": "Protein kinase C eta type (Homo sapiens) (UniProt P24723)", "sequence (P24723 whole entry, the tested form may be a part)": "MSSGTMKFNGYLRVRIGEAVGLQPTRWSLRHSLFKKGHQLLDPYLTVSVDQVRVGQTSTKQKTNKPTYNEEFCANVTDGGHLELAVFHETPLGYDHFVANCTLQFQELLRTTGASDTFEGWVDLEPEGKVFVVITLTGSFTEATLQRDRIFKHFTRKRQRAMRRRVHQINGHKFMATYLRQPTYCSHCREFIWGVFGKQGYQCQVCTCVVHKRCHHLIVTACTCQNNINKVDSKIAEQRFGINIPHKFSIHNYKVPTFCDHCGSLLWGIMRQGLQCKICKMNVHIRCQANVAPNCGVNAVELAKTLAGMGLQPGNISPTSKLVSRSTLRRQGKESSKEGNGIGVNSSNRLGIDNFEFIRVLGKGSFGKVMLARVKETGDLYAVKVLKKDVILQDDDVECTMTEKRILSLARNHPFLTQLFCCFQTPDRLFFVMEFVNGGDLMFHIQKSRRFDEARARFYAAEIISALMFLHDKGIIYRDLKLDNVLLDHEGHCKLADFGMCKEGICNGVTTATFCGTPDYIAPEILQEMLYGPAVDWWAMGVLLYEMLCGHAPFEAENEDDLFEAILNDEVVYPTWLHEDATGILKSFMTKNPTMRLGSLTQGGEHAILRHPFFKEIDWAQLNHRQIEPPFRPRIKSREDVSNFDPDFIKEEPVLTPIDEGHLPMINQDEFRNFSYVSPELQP", "assay": "Binding affinity to wild-type human partial length PRKCH (S324 to P683 residues) expressed in bacterial expression system assessed as residual binding level at 10 uM by Kinomescan method relative to control"}, "[19]": {"target": "Serine/threonine-protein kinase Nek7 (Homo sapiens) (UniProt Q8TDX7)", "assay": "Binding affinity to wild-type human full length NEK7 (M1 to S302 residues) expressed in bacterial expression system assessed as residual binding level at 10 uM by Kinomescan method relative to control"}, "[20]": {"target": "Serine/threonine-protein kinase LATS2 (Homo sapiens) (UniProt Q9NRM7)", "assay": "Binding affinity to wild-type human partial length LATS2 (Q641 to V1088 residues) expressed in mammalian expression system assessed as residual binding level at 10 uM by Kinomescan method relative to control"}, "[21]": {"target": "Serine/threonine-protein kinase/endoribonuclease IRE1 (Homo sapiens) (UniProt O75460)", "sequence (O75460 19-977 limits assumed)": "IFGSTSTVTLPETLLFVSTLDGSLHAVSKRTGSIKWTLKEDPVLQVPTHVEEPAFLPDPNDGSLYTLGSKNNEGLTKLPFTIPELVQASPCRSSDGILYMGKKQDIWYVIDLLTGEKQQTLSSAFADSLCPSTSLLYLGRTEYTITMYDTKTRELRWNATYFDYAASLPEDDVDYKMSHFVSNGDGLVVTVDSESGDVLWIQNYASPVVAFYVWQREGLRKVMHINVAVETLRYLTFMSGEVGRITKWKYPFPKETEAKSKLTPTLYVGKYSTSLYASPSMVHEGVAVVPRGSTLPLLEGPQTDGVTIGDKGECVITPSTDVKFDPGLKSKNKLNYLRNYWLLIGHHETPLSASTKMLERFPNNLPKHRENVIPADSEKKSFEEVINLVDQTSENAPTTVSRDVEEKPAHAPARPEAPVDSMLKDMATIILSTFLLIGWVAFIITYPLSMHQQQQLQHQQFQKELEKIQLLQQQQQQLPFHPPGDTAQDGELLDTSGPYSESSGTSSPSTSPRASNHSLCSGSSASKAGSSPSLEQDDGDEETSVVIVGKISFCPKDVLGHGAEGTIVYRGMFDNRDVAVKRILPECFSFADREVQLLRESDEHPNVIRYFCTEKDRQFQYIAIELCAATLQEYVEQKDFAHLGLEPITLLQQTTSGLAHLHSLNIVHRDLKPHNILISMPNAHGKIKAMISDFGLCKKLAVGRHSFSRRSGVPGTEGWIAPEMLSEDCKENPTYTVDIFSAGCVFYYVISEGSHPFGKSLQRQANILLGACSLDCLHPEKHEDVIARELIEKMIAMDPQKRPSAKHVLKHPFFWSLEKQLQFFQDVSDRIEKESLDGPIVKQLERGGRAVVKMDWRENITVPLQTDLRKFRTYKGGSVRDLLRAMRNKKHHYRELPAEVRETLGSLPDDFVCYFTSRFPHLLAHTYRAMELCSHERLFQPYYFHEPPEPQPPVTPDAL", "assay": "Binding affinity to wild-type human partial length ERN1 (S551 to E852 residues) expressed in mammalian expression system assessed as residual binding level at 10 uM by Kinomescan method relative to control"}, "[22]": {"target": "Rhodopsin kinase GRK1 (Homo sapiens) (UniProt Q15835)", "assay": "Binding affinity to wild-type human full length GRK1 (M1 to S563 residues) expressed in mammalian expression system assessed as residual binding level at 10 uM by Kinomescan method relative to control"}, "[23]": {"target": "Serine/threonine-protein kinase tousled-like 2 (Homo sapiens) (UniProt Q86UE8)", "sequence (Q86UE8 whole entry, looked up, the tested form may be a part)": "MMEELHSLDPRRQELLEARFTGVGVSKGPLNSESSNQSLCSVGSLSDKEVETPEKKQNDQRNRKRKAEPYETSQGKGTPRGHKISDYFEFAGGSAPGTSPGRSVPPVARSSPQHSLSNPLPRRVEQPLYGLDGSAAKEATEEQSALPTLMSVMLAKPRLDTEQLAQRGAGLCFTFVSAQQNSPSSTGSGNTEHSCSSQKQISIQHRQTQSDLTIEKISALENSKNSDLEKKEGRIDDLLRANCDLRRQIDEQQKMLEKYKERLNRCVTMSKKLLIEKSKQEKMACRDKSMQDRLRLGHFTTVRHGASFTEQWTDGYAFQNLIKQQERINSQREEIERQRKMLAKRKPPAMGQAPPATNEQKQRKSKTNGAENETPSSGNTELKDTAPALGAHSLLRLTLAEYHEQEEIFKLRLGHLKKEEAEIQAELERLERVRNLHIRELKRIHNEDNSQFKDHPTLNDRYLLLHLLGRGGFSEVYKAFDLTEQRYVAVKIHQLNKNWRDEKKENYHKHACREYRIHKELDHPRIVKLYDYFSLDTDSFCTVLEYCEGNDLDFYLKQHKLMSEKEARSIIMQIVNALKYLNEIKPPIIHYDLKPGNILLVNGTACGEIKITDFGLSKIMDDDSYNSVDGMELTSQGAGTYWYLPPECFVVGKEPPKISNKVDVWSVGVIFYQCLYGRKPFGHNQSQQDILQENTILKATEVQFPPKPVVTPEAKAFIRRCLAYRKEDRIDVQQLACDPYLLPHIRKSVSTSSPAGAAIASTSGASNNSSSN", "assay": "Binding affinity to wild-type human partial length TLK2 (E424 to N749 residues) expressed in bacterial expression system assessed as residual binding level at 10 uM by Kinomescan method relative to control"}, "[24]": {"target": "CDK4/Cyclin D3 (Homo sapiens) (UniProt P11802+P30281)", "assay": "Binding affinity to wild-type human full length CDK4/cyclinD3 (M1 to E303 residues) expressed in mammalian expression system assessed as residual binding level at 10 uM by Kinomescan method relative to control"}}, "data": [{"smiles": "O=C(Nc1cc(-c2cn(CCNc3c4c(nc5ccccc35)CCCC4)nn2)ccn1)Nc1cccc2c1C1CCCCN1C2=O", "note": "(racemic)", "values": [{"measurement": "Activity", "setting": "[1]", "value": 48, "unit": "%"}, {"measurement": "Activity", "setting": "[2]", "value": 100, "unit": "%"}, {"measurement": "Activity", "setting": "[3]", "value": 9.5, "unit": "%"}, {"measurement": "Activity", "setting": "[4]", "value": 4.5, "unit": "%"}, {"measurement": "Activity", "setting": "[5]", "value": 74, "unit": "%"}, {"measurement": "Activity", "setting": "[6]", "value": 40, "unit": "%"}, {"measurement": "Activity", "setting": "[7]", "value": 4.8, "unit": "%"}, {"measurement": "Activity", "setting": "[8]", "value": 15, "unit": "%"}, {"measurement": "Activity", "setting": "[9]", "value": 73, "unit": "%"}, {"measurement": "Activity", "setting": "[10]", "value": 1.6, "unit": "%"}, {"measurement": "Activity", "setting": "[11]", "value": 75, "unit": "%"}, {"measurement": "Activity", "setting": "[12]", "value": 21, "unit": "%"}, {"measurement": "Activity", "setting": "[13]", "value": 2.8, "unit": "%"}, {"measurement": "Activity", "setting": "[14]", "value": 10, "unit": "%"}, {"measurement": "Activity", "setting": "[15]", "value": 8.7, "unit": "%"}, {"measurement": "Activity", "setting": "[16]", "value": 99, "unit": "%"}, {"measurement": "Activity", "setting": "[17]", "value": 54, "unit": "%"}, {"measurement": "Activity", "setting": "[18]", "value": 3.9, "unit": "%"}, {"measurement": "Activity", "setting": "[19]", "value": 27, "unit": "%"}, {"measurement": "Activity", "setting": "[20]", "value": 65, "unit": "%"}, {"measurement": "Activity", "setting": "[21]", "value": 87, "unit": "%"}, {"measurement": "Activity", "setting": "[22]", "value": 40, "unit": "%"}, {"measurement": "Activity", "setting": "[23]", "value": 37, "unit": "%"}, {"measurement": "Activity", "setting": "[24]", "value": 1.4, "unit": "%"}]}]}
